Measurements taken from PubChem BioAssay (NCI).
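These data come from cells grown in 96-well plates and exposed to compound for 48 hours at five concentrations. GI50: concentration for 50% inhibition of growth. Definition used: TGI = concentration required for complete inhibition of growth.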

Assays:
Test in all cases: NCI tumour cell line growth inhibition, 48 h
OVCAR-4 ovarian = test system: OVCAR-4 ovarian
HCT-15 colon = test system: HCT-15 colon
MOLT-4 leukemia = test system: MOLT-4 leukemia
UO-31 renal = test system: UO-31 renal
SF-539 CNS = test system: SF-539 CNS
HOP-92 NSCLC = test system: HOP-92 NSCLC
HCC-2998 colon = test system: HCC-2998 colon
PC-3 prostate = test system: PC-3 prostate
SF-268 CNS = test system: SF-268 CNS
MDA-MB-231 breast = test system: MDA-MB-231 breast
M14 melanoma = test system: M14 melanoma
U251 CNS = test system: U251 CNS
HCT-116 colon = test system: HCT-116 colon
SK-MEL-28 melanoma = test system: SK-MEL-28 melanoma
786-0 renal = test system: 786-0 renal
SNB-19 CNS = test system: SNB-19 CNS
A549 NSCLC = test system: A549 NSCLC
COLO 205 colon = test system: COLO 205 colon
SN12C renal = test system: SN12C renal
LOX IMVI melanoma = test system: LOX IMVI melanoma
SF-295 CNS = test system: SF-295 CNS
SR leukemia = test system: SR leukemia
ACHN renal = test system: ACHN renal
IGROV1 ovarian = test system: IGROV1 ovarian
T-47D breast = test system: T-47D breast
NCI-H226 lung = test system: NCI-H226 lung
NCI-H23 lung = test system: NCI-H23 lung
NCI-H460 lung = test system: NCI-H460 lung
CAKI-1 renal = test system: CAKI-1 renal
MDA-MB-435 = test system: MDA-MB-435
K-562 leukemia = test system: K-562 leukemia
SK-MEL-5 melanoma = test system: SK-MEL-5 melanoma
EKVX NSCLC = test system: EKVX NSCLC
MALME-3M melanoma = test system: MALME-3M melanoma
NCI-H522 lung = test system: NCI-H522 lung
BT-549 breast = test system: BT-549 breast
HS 578T breast = test system: HS 578T breast
DU-145 prostate = test system: DU-145 prostate
HOP-62 NSCLC = test system: HOP-62 NSCLC
SNB-75 CNS = test system: SNB-75 CNS
MCF7 breast = test system: MCF7 breast
UACC-62 melanoma = test system: UACC-62 melanoma
CCRF-CEM leukemia = test system: CCRF-CEM leukemia
NCI/ADR-RES ovarian = test system: NCI/ADR-RES ovarian
OVCAR-5 ovarian = test system: OVCAR-5 ovarian
UACC-257 melanoma = test system: UACC-257 melanoma
RXF 393 renal = test system: RXF 393 renal
SW-620 colon = test system: SW-620 colon
HT29 colon = test system: HT29 colon
A498 renal = test system: A498 renal
HL-60(TB) leukemia = test system: HL-60(TB) leukemia
TK-10 renal = test system: TK-10 renal
OVCAR-3 ovarian = test system: OVCAR-3 ovarian
SK-OV-3 ovarian = test system: SK-OV-3 ovarian
KM12 colon = test system: KM12 colon
RPMI-8226 leukemia = test system: RPMI-8226 leukemia
OVCAR-8 ovarian = test system: OVCAR-8 ovarian
SK-MEL-2 melanoma = test system: SK-MEL-2 melanoma

O=C1c2ccccc2C(=O)c2c(Nc3ccc(CCO)cc3)ccc(O)c21
GI50 (OVCAR-4 ovarian): 9.13 µM | TGI (OVCAR-4 ovarian): > 100 µM | GI50 (HCT-15 colon): 4.28 µM | TGI (HCT-15 colon): 38.7 µM | GI50 (MOLT-4 leukemia): 10.7 µM | TGI (MOLT-4 leukemia): > 100 µM | GI50 (UO-31 renal): 2.2 µM | TGI (UO-31 renal): 26.9 µM | GI50 (SF-539 CNS): 10.2 µM | TGI (SF-539 CNS): 27.3 µM | GI50 (HOP-92 NSCLC): 4.52 µM | TGI (HOP-92 NSCLC): 26.3 µM | GI50 (HCC-2998 colon): 9.42 µM | TGI (HCC-2998 colon): 28.3 µM | GI50 (PC-3 prostate): 6.34 µM | TGI (PC-3 prostate): 25.5 µM | GI50 (SF-268 CNS): 11 µM | TGI (SF-268 CNS): > 100 µM | GI50 (MDA-MB-231 breast): 3.3 µM | TGI (MDA-MB-231 breast): 24.9 µM | GI50 (M14 melanoma): 12.9 µM | TGI (M14 melanoma): 61.4 µM | GI50 (U251 CNS): 8.33 µM | TGI (U251 CNS): 85.8 µM | GI50 (HCT-116 colon): 8.71 µM | TGI (HCT-116 colon): > 100 µM | GI50 (SK-MEL-28 melanoma): 12.3 µM | TGI (SK-MEL-28 melanoma): 55.2 µM | GI50 (786-0 renal): 17.2 µM | TGI (786-0 renal): 60.1 µM | GI50 (SNB-19 CNS): 23 µM | TGI (SNB-19 CNS): 72.2 µM | GI50 (A549 NSCLC): 6.43 µM | TGI (A549 NSCLC): > 100 µM | GI50 (COLO 205 colon): 4.86 µM | TGI (COLO 205 colon): 21.7 µM | GI50 (SN12C renal): 16.9 µM | TGI (SN12C renal): > 100 µM | GI50 (LOX IMVI melanoma): 3.15 µM | TGI (LOX IMVI melanoma): 14.5 µM | GI50 (SF-295 CNS): 11.8 µM | TGI (SF-295 CNS): 47.4 µM | GI50 (SR leukemia): 7.71 µM | TGI (SR leukemia): > 100 µM | GI50 (ACHN renal): 4.3 µM | TGI (ACHN renal): 45.2 µM | GI50 (IGROV1 ovarian): 1.41 µM | TGI (IGROV1 ovarian): 32.6 µM | GI50 (T-47D breast): 0.987 µM | TGI (T-47D breast): 26.1 µM | GI50 (NCI-H226 lung): 14.8 µM | TGI (NCI-H226 lung): 48.9 µM | GI50 (NCI-H23 lung): 17.3 µM | TGI (NCI-H23 lung): 88.7 µM | GI50 (NCI-H460 lung): 3.57 µM | TGI (NCI-H460 lung): 15.1 µM | GI50 (CAKI-1 renal): 6.81 µM | TGI (CAKI-1 renal): > 100 µM | GI50 (MDA-MB-435): 22.6 µM | TGI (MDA-MB-435): > 100 µM | GI50 (K-562 leukemia): 18.4 µM | TGI (K-562 leukemia): > 100 µM | GI50 (SK-MEL-5 melanoma): 11.7 µM | TGI (SK-MEL-5 melanoma): 33.5 µM | GI50 (EKVX NSCLC): 4.69 µM | TGI (EKVX NSCLC): > 100 µM | GI50 (MALME-3M melanoma): 12.8 µM | TGI (MALME-3M melanoma): 58 µM | GI50 (NCI-H522 lung): 3.56 µM | TGI (NCI-H522 lung): 16.7 µM | GI50 (BT-549 breast): 9.82 µM | TGI (BT-549 breast): 68.5 µM | GI50 (HS 578T breast): 3.52 µM | TGI (HS 578T breast): 48 µM | GI50 (DU-145 prostate): 7.67 µM | TGI (DU-145 prostate): 42.7 µM | GI50 (HOP-62 NSCLC): 21.4 µM | TGI (HOP-62 NSCLC): 45.9 µM | GI50 (SNB-75 CNS): 5.09 µM | TGI (SNB-75 CNS): 29 µM | GI50 (MCF7 breast): 0.504 µM | TGI (MCF7 breast): 36.4 µM | GI50 (UACC-62 melanoma): 10.2 µM | TGI (UACC-62 melanoma): 32.3 µM | GI50 (CCRF-CEM leukemia): 3.61 µM | TGI (CCRF-CEM leukemia): 30.7 µM | GI50 (NCI/ADR-RES ovarian): 17.6 µM | TGI (NCI/ADR-RES ovarian): 94.4 µM | GI50 (OVCAR-5 ovarian): 21.1 µM | TGI (OVCAR-5 ovarian): 62.6 µM | GI50 (UACC-257 melanoma): 20.3 µM | TGI (UACC-257 melanoma): 70.7 µM | GI50 (RXF 393 renal): 6.54 µM | TGI (RXF 393 renal): 23.7 µM | GI50 (SW-620 colon): 6.69 µM | TGI (SW-620 colon): 67.5 µM | GI50 (HT29 colon): 4.09 µM | TGI (HT29 colon): 14.9 µM | GI50 (A498 renal): 16.4 µM | TGI (A498 renal): 40.2 µM | GI50 (HL-60(TB) leukemia): 25.6 µM | TGI (HL-60(TB) leukemia): > 100 µM | GI50 (TK-10 renal): 21.8 µM | TGI (TK-10 renal): > 100 µM | GI50 (OVCAR-3 ovarian): 13.2 µM | TGI (OVCAR-3 ovarian): > 100 µM | GI50 (SK-OV-3 ovarian): 11 µM | TGI (SK-OV-3 ovarian): 64.8 µM | GI50 (KM12 colon): 4.74 µM | TGI (KM12 colon): 36.3 µM | GI50 (RPMI-8226 leukemia): 5.49 µM | TGI (RPMI-8226 leukemia): 36.5 µM | GI50 (OVCAR-8 ovarian): 17.4 µM | TGI (OVCAR-8 ovarian): > 100 µM

C=C1C(=O)OC2C1C(=O)C/C(C)=C/CCC1(C)OC21 (stereo unspecified)
TGI (OVCAR-4 ovarian): 46 µM | TGI (SK-MEL-2 melanoma): 35.8 µM | TGI (HCT-15 colon): 28.6 µM | TGI (MOLT-4 leukemia): 47 µM | TGI (UO-31 renal): 28.4 µM | TGI (SF-539 CNS): 29.3 µM | TGI (HOP-92 NSCLC): 41.7 µM | TGI (HCC-2998 colon): 35.3 µM | TGI (PC-3 prostate): 33.3 µM | TGI (SF-268 CNS): 50.8 µM | TGI (MDA-MB-231 breast): 38.3 µM | TGI (M14 melanoma): 31.7 µM | TGI (U251 CNS): 37.7 µM | TGI (HCT-116 colon): 33.5 µM | TGI (SK-MEL-28 melanoma): 31.6 µM | TGI (786-0 renal): 31.8 µM | TGI (SNB-19 CNS): > 100 µM | TGI (A549 NSCLC): 37.8 µM | TGI (COLO 205 colon): 18 µM | TGI (SN12C renal): 42.6 µM | TGI (LOX IMVI melanoma): 36.7 µM | TGI (SF-295 CNS): > 100 µM | TGI (SR leukemia): > 100 µM | TGI (ACHN renal): 22.2 µM | TGI (IGROV1 ovarian): 44.9 µM | TGI (T-47D breast): 32.2 µM | TGI (NCI-H226 lung): 39.2 µM | TGI (NCI-H23 lung): 38.8 µM | TGI (NCI-H460 lung): 39.7 µM | TGI (CAKI-1 renal): 28.6 µM | TGI (MDA-MB-435): 31.1 µM | TGI (K-562 leukemia): 74 µM | TGI (SK-MEL-5 melanoma): 34.5 µM | TGI (EKVX NSCLC): 61.2 µM | TGI (NCI-H522 lung): 12 µM | TGI (BT-549 breast): 54.6 µM | TGI (HS 578T breast): > 100 µM | TGI (DU-145 prostate): 32.1 µM | TGI (HOP-62 NSCLC): 28 µM | TGI (SNB-75 CNS): 46.7 µM | TGI (MCF7 breast): 29.2 µM | TGI (UACC-62 melanoma): 66.8 µM | TGI (CCRF-CEM leukemia): > 100 µM | TGI (NCI/ADR-RES ovarian): 99.4 µM | TGI (OVCAR-5 ovarian): 33 µM | TGI (UACC-257 melanoma): 41.3 µM | TGI (RXF 393 renal): 31.9 µM | TGI (SW-620 colon): 40.8 µM | TGI (HT29 colon): 43.2 µM | TGI (A498 renal): 49.6 µM | TGI (HL-60(TB) leukemia): 7.23 µM | TGI (TK-10 renal): 30.8 µM | TGI (OVCAR-3 ovarian): 31.8 µM | TGI (SK-OV-3 ovarian): > 100 µM | TGI (KM12 colon): 53.3 µM | TGI (RPMI-8226 leukemia): 31.7 µM | TGI (OVCAR-8 ovarian): 56.2 µM
